This passage reports IC50, AUC and Cmax results from patent US20240101548A1, “HYDROXAMATE COMPOUND, PREPARATION METHOD THEREFOR AND APPLICATION THEREOF” (SHENZHEN CHIPSCREEN BIOSCIENCES CO., LTD., priority 2020, published 2024).

Data set [1] deals with IL-2-induced JAK1/JAK3 signal pathway. The data set is described as follows: IL-2-induced proliferation of KHYG-1 cells (JAK1/JAK3 signal). The data set is classed as cell-based, human. The following applies: Homo sapiens; KHYG-1 cell proliferation, IL-2 10 ng/mL, 72 hours; read-out: Inhibition activity IC50 on IL-2-induced JAK1/JAK3 signal pathway. The essentials:
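KHYG-1 NK lymphoma cells were cultured with IL-2 and test compound at various doses for 72 h at 37 °C and 5% CO2, and proliferation was read with alamarBlue fluorescence. Inhibition was normalized to wells without compound or cytokine (0%) and IL-2 wells without compound (100%), and C50 was derived from the dose-inhibition data.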

Another data set deals with TYK2 JH2 domain (Homo sapiens (Human), UniProt P29597). The data set is described as follows: TYK2 JH2 domain FRET tracer assay. The data set is classed as binding. The following applies: FRET 665/615 nm; read-out: Inhibition activity IC50 on TYK2 JH2 domain. Here is the method:
Compound of the present invention formulated into different concentrations (series 3 times dilutions, started from 60 μM, 11 concentrations in total) was added to 384-well plate, followed by 5 μL of enzyme (i.e., TYK2 JH2 domain), Tb antibody (Cisbio) and tracer. The mixture was incubated at 25° C. for 60 min and left at 4° C. overnight.

The subject of data set [2] is INF-α-induced pSTAT5 in human PBMC. The data set is described as follows: INF-α-induced pSTAT5 in human PBMC (FACS, CD3 positive cells). The data set is classed as cell-based. To be noted: Homo sapiens, PBMC, IFN-α 30 ng/ml, read-out: Inhibition activity IC50 on INF-α-induced pSTAT5 in human PBMC. The method, then:
hPBMC (available from Shanghai AoNeng Biotechnology Co., Ltd.) was inoculated in 96-well plate, added with compound of the present invention (at concentrations of 40 nM and 200 nM), incubated for 60 min (compound in concentrations of 2 nM, 10 nM respectively during the incubation); added with 30 ng/ml of stimulating factor IFN-α (BioLegend) together with anti-CD3 antibody (Biolegend) and then continued to be incubated for 30 min. After the incubation, each well was added with 1 mL of fixing solution (BD Biosciences), the obtained mixture was incubated for 10 min followed by centrifugation, added with 400 μL/well of Perm III (BD Biosciences), followed by further incubation at 4° C. for 30 min. The obtained mixture was added with mouse anti-human pSTAT5 antibody (Alexa Fluor® 647 Conjugate), followed by incubation at room temperature for 40 min. Fluorescence intensity of pSTAT5 in CD3 positive cells was detected by FACS.
Inhibition rate at individual compound concentration was calculated with the following formula:
Inhibition rate=(MFI value(IFN-α-stimulated control)−MI value(2/10 nM compound treated group)/MFI value(IFN-α-stimulated control)[…]
wherein: MFI value meant fluorescence intensity value; IFN-α-stimulated control meant control group which was operated similarly to the experimental groups but no compound of the present invention was added.

The nature of data set [3]: In-vivo pharmacokinetic test in mice. To be noted: mouse, po; BALB/c female mice, gavage 10 mg/kg, plasma. The method, then: LC-MS/MS method is used to determine the drug concentration in the plasma of mice at different times after intragastric administration of the compound of the example. Relevant pharmacokinetic parameters are calculated to study the pharmacokinetic behavior of the compound of the present invention in mice, thereby evaluating the pharmacokinetic characteristics thereof.
Test animal was healthy adult BALB/c female mouse (provided by Chengdu Yaokang Biotechnology Co., Ltd.);
Compound administration and sample collection: compound was administered to BALB/c female mice by gavage (10 mg/kg). At 0.25, 0.5, 1, 2, 4, 6, 8, and 24 hours after administration, 60 μL of whole blood of the mouse fundus venous plexus were collected and centrifuged at 4000 rpm for 10 min to provide plasma.
Sample analysis: 10 μL of mouse plasma samples were respectively added with 290 μL of acetonitrile solution containing internal standard to precipitate proteins. After swirling for 10 min and centrifuging at 4000 rpm for 10 min, 200 μL of supernatant was added to 96-well plate, and analyzed by LC-MS/MS at an injection volume of 1 μL.

Chain of TYK2 JH2 domain (P29597 589-875): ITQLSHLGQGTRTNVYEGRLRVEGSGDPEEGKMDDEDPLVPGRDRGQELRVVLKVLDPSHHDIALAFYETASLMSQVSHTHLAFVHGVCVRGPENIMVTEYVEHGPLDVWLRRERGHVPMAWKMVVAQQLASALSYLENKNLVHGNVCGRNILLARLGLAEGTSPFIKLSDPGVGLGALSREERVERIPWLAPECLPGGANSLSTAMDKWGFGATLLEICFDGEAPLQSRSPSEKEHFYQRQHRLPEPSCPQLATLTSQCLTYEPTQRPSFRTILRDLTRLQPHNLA

Regarding `CCONC(=O)c1cnc(Nc2cc(C)nc(C)n2)cc1Nc1ccc(C(F)(F)F)cc1N(C)S(C)(=O)=O` [Example 202, 6-((2,6-dimethylpyrimidin-4-yl)amino)-N-ethoxy-4-((2-(N-methylmethanesulfonamido)-4-(trifluoromethyl)phenyl)amino)nicotinamide], the values for the IC50 (in data set [1]; at TYK2 JH2 domain; in data set [2]) were more than 10000 nM, 0.06 nM and less than 2 nM, respectively.
For `CCONC(=O)c1cnc(Nc2cc(C)nc(C)n2)cc1Nc1cccc(-c2ncccn2)c1OC` [Example 212], the IC50 was more than 10000 nM in data set [1], 0.05 nM on TYK2 JH2 domain and less than 2 nM in data set [2]. This molecule also came in with an AUC in data set [3] of 16.3 µM·h. This molecule also came in with a Cmax in data set [3] of 15 µM.
On the same counts, the results for `CCONC(=O)c1cnc(Nc2cc(C)nc(C)n2)cc1Nc1cc(F)cc(-c2ncccn2)c1OC` [Example 215, 6-((2,6-dimethylpyrimidin-4-yl)amino)-N-ethoxy-4-((5-fluoro-2-methoxy-3-(pyrimidin-2-yl)phenyl)amino)nicotinamide] are more than 10000 nM, 0.07 nM, less than 2 nM, 25.8 µM·h and 13.6 µM.
As to `CCONC(=O)c1cnc(NC(=O)C2CC2)cc1Nc1cccc(-c2ncc(Cl)cn2)c1OC` [Example 219, 4-((3-(5-chloropyrimidin-2-yl)-2-methoxyphenyl)amino)-6-(cyclopropylcarboxamido)-N-ethoxy nicotinamide], the IC50 in data set [1] is more than 10000 nM; at TYK2 JH2 domain, 0.13 nM; in data set [2] it was less than 2 nM. In addition, the area under the curve (AUC) in data set [3] amounted to 16.8 µM·h. For the same molecule, the peak level in data set [3] (Cmax) was 10.3 µM.
For `CCONC(=O)c1cnc(Nc2cc(C)nc(C)n2)cc1Nc1cccc(-c2ncc(C)cn2)c1OC` [Example 238, 6-((2,6-dimethylpyrimidin-4-yl)amino)-N-ethoxy-4-((2-methoxy-3-(5-methylpyrimidin-2-yl)phenyl)amino)nicotinamide], the IC50 in data set [1] was more than 10000 nM; in data set [2], less than 2 nM. Besides, in data set [3], the AUC came out at 39.9 µM·h. The concentration in data set [3] peaked (Cmax) at 15.1 µM.
